Assay results reported in patent US20090197949A1, “ANTITUMOR METHODS AND COMPOSITIONS COMPRISING SESQUITERPENE DERIVATIVES” (F.P.L. Pharma, Inc., priority 2001, published 2009).
Where two headings read alike, the source gives them in different places.

What was measured:
[1] = tested on: A-549 human lung carcinoma; assay: cells; format: cell-based
From the text: (§1) Normal human fibroblasts were purchased from Biopredic International (Rennes, France). This frozen culture was obtained from a person abdominal surgical waste and the cells used in this work was from the 7th to the 12th passage of the culture. M4Beu and […], human melanoma cell lines, was established in the laboratory of Dr. J. F. Doré (Institut National de la Santé et de la Recherche Médicale-INSERM, Unit 218, Lyon, France) from metastatic biopsy specimens (Thomasset, N. et al.; British Journal of Cancer, 46, 58-66 (1982)). Murine colon carcinoma cell line CT-26 was obtained from Dr I. J. Fidler (University of Texas M.D. Anderson Cancer Center, Houston). Breast cancer adenocarcinoma MCF-7 and MDA-MB-231, prostatic adenocarcinoma PC-3, ovary adenocarcinoma SK-OV-3, lung carcinoma A-549, colon adenocarcinoma DLD-1, human cell lines and melanoma 1B16 and fibroblast L-929 murine cell lines were purchased from American Type of Culture Collection (ATCC) or the European Collection of Cell Cultures (ECACC; Salisbury, United-Kingdom). Stock cell cultures were maintained as monolayers in 75-cm^2 culture flasks in GlutamaxTM Eagle's minimum essential medium with Earle's salts (Gibco-BRL, Paisley, Scotland) supplemented with 10% foetal calf serum (Sigma), and 5 ml of a 100× solution of vitamins (Gibco), 5 ml of 100 mM sodium pyruvate (Gibco), 5 ml of 100× non-essential amino acids (Gibco) and 2 mg of gentamicin base (Gibco). Cells were grown in a humidified 37° C. incubator containing 5% CO2. Cells were plated at a density of 5×10^3 cells per well in 96-well microplates (NunclonTM, Nunc) in 100 μl of culture medium and were allowed to adhere for 16 h before treatment. Then, 100 μl of culture medium containing essential oil of Pinus divaricata, essential oil of Thuya occidentalis, essential oil of Abies balsamea, α-humulene (Sigma-Aldrich); isocaryophyllene (Sigma-Aldrich) were added and incubated at 37° C. for 48 h. All compounds were dissolved in ethanol and the final concentration of ethanol in the culture medium was maintained at 0.5% (v/v). The effect of essential oils and compounds of oil on the proliferation of tumour cells was assessed using resazurin reduction test. Resazurin was recently identified as the alamar Blue dye (O'Brien, J. et al.; European Journal of Biochemistry, 267, 5421-6, (2000)). The resazurin reduction test (RRT) was carried out according to the protocol described here. Briefly, plates were rinsed by 200 μl PBS (37° C., Gibco) at 37° C. using an automatic microplate washer (Cell WashTM, Labsystems, Helsinki, Finland) and emptied by overturning on absorbent toweling. Then, 150 μl of a 25 μg/ml solution of resazurin in RPMI 1640 without Phenol red was added in each well using an automatic microvolume dispenser (Multidrop 384TM Labsystems). The plates were incubated 1 h at 37° C. in an humidified atmosphere with 5% of CO2 for fluorescence development by living cells. Fluorescence was then measured on the automated 96-well plate reader Fluoroskan Ascent FLTM (Labsystems) using an excitation wavelength of 530 nm and an emission one of 590 nm. The fluorescence is proportional to the number of living cells in the well and IC50 (drug concentration required to inhibit cell proliferation by 50%) was calculated from the curve of concentration-dependent survival percentage, defined as the fluorescence in experimental wells as a percentage of that in control wells, with blank values subtracted. The essentials oil of jack pine (Pinus banksiana or Pinus divaricata), eastern white cedar (Thuya occidentalis), balsam fir (Abies balsamea), were evaluated for their cytotoxic activity against various tumor cell lines (Table 1). The cell growth inhibition were measured by the fluorescence induced by the metabolic transformation of resazurin in resorufin. The fluorescence is proportional to living cells and allow to evaluate the concentration inhibiting 50% of cell growth (IC50).

[2] = tested on: DLD-1 human colon adenocarcinoma; assay: cells; format: cell-based
From the text: as §1

M4BEU human melanoma = assay: cells; format: cell-based
From the text: as §1

[3] = tested on: MCF-7 human breast adenocarcinoma; assay: cells; format: cell-based
From the text: as §1

[4] = tested on: PC-3 human prostatic adenocarcinoma; assay: cells; format: cell-based
From the text: as §1

Normal human fibroblasts = assay: In vitro survival assay, resazurin reduction test, normal fibroblasts; format: cell-based; details: Fibroblast
From the text: (§2) Normal human fibroblasts were purchased from Biopredic International (Rennes, France). This frozen culture was obtained from a person abdominal surgical waste and the cells used in this work was from the 7th to the 12th passage of the culture. M4Beu and […], human melanoma cell lines, was established in the laboratory of Dr. J. F. Doré (Institut National de la Santé et de la Recherche Médicale-INSERM, Unit 218, Lyon, France) from metastatic biopsy specimens (Thomasset, N. et al.; British Journal of Cancer, 46, 58-66 (1982)). Murine colon carcinoma cell line CT-26 was obtained from Dr I. J. Fidler (University of Texas M.D. Anderson Cancer Center, Houston). Breast cancer adenocarcinoma MCF-7 and MDA-MB-231, prostatic adenocarcinoma PC-3, ovary adenocarcinoma SK-OV-3, lung carcinoma A-549, colon adenocarcinoma DLD-1, human cell lines and melanoma 1B16 and fibroblast L-929 murine cell lines were purchased from American Type of Culture Collection (ATCC) or the European Collection of Cell Cultures (ECACC; Salisbury, United-Kingdom). […] The effect of essential oils and compounds of oil on the proliferation of tumour cells was assessed using resazurin reduction test. […] The plates were incubated 1 h at 37° C. in an humidified atmosphere with 5% of CO2 for fluorescence development by living cells. Fluorescence was then measured on the automated 96-well plate reader Fluoroskan Ascent FLTM (Labsystems) using an excitation wavelength of 530 nm and an emission one of 590 nm. […] The essentials oil of jack pine (Pinus banksiana or Pinus divaricata), eastern white cedar (Thuya occidentalis), balsam fir (Abies balsamea), were evaluated for their cytotoxic activity against various tumor cell lines (Table 1). The cell growth inhibition were measured by the fluorescence induced by the metabolic transformation of resazurin in resorufin. […]

[5] = tested on: L-929 mouse subcutaneous connective tissue (fibroblast); assay: In vitro survival assay, resazurin reduction test, L-929; format: cell-based; details: L929, L-929, 48 h
From the text: as §2, with “Houston).” for “Houston). Breast cancer adenocarcinoma MCF-7 and MDA-MB-231, prostatic adenocarcinoma PC-3, ovary adenocarcinoma SK-OV-3, lung carcinoma A-549, colon adenocarcinoma DLD-1, human cell lines and melanoma 1B16 and fibroblast L-929 murine cell lines were purchased from American Type of Culture Collection (ATCC) or the European Collection of Cell Cultures (ECACC; Salisbury, United-Kingdom).”, “1).” for “1). The cell growth inhibition were measured by the fluorescence induced by the metabolic transformation of resazurin in resorufin.”

[6] = tested on: CT-26 mouse colon carcinoma; assay: In vitro survival assay, resazurin reduction test, CT-26; format: cell-based; details: CT26, CT-26, 48 h
From the text: as §2, with “Houston).” for “Houston). Breast cancer adenocarcinoma MCF-7 and MDA-MB-231, prostatic adenocarcinoma PC-3, ovary adenocarcinoma SK-OV-3, lung carcinoma A-549, colon adenocarcinoma DLD-1, human cell lines and melanoma 1B16 and fibroblast L-929 murine cell lines were purchased from American Type of Culture Collection (ATCC) or the European Collection of Cell Cultures (ECACC; Salisbury, United-Kingdom).”, “1).” for “1). The cell growth inhibition were measured by the fluorescence induced by the metabolic transformation of resazurin in resorufin.”

tumor cell lines = assay: In vitro cytotoxic/antitumoral activity against tumor cell lines (panel statement); format: cell-based
Description: Cells were plated at a density of 5×10^3 cells per well in 96-well microplates (Nunclon™, Nunc) in 100 μl of culture medium and were allowed to adhere for 16 h before treatment. Then, 100 μl of culture medium containing essential oil of Pinus divaricata, essential oil of Thuya occidentalis, essential oil of Abies balsamea, α-humulene (Sigma-Aldrich); isocaryophyllene (Sigma-Aldrich) were added and incubated at 37° C. for 48 h. All compounds were dissolved in ethanol and the final concentration of ethanol in the culture medium was maintained at 0.5% (v/v). The effect of essential oils and compounds of oil on the proliferation of tumour cells was assessed using resazurin reduction test.
The resazurin reduction test (RRT) was carried out according to the protocol described here. Briefly, plates were rinsed by 200 μl PBS (37° C., Gibco) at 37° C. using an automatic microplate washer (Cell Wash™, Labsystems, Helsinki, Finland) and emptied by overturning on absorbent toweling. […] The plates were incubated 1 h at 37° C. in an humidified atmosphere with 5% of CO2 for fluorescence development by living cells. Fluorescence was then measured on the automated 96-well plate reader Fluoroskan Ascent FL™ (Labsystems) using an excitation wavelength of 530 nm and an emission one of 590 nm.

[7] = tested on: glutathione-S-transferase; details: Zheng et al. 1992; cited from earlier work
[8] = tested on: about ten tumor cell lines; details: Kaneda et al. 1992; cited from earlier work
[9] = tested on: gastric mucosal injuries induced by necrotizing agents; details: necrotizing agents such as absolute ethanol and HCl; Tambe et al. 1996; cited from earlier work
[10] = A549, A-549, 48 h, read-out: IC50
[11] = MCF7, MCF-7, 48 h, read-out: IC50

IC50 [1, 10]	IC50 ([2]; DLD-1, 48 h, read-out: IC50)	IC50 (M4BEU human melanoma; 48 h, read-out: IC50)	IC50 [3, 11]	IC50 ([4]; PC-3, 48 h, read-out: IC50)	SMILES	IC50 (Normal human fibroblasts; 48 h, read-out: IC50)	IC50 (Normal human fibroblasts; fibroblastic normal cell, Table 2, read-out: activity against fibroblastic normal cell)	IC50 [5]	IC50 [6]	IC50 (tumor cell lines; all tumor cells tested, Table 2)	IC50 ([1]; A549, read-out: cytotoxic activity)	IC50 ([2]; DLD-1, read-out: cytotoxic activity)	IC50 (M4BEU human melanoma; read-out: cytotoxic activity)	IC50 ([3]; MCF7, read-out: cytotoxic activity)	IC50 ([4]; read-out: cytotoxic activity)	glutathione-S-transferase activity in vivo [7]	antitumoral activity in vitro, evaluated by the Applicants (tumor cell lines)	activity in vitro against about ten tumor cell lines [8]	gastric cytoprotection effect [9]
59 ± 4 µM	124 ± 17 µM	43 ± 3 µM	84 ± 6 µM	87 ± 8 µM	C=C1CCC=C(C)CC[C@H]2[C@@H]1CC2(C)C (relative stereo) [Isocaryophyllene, cis-4,11,11-Trimethyl-8-methylenebicyclo[7.2.0]undec-4-ene]	124 ± 15 µM	> 100 µM	34 ± 0.8 µM	46 ± 1 µM	< 100 µM									
68 ± 2 µM	71 ± 2 µM	55 ± 2 µM	73 ± 2 µM	73 ± 2 µM	CC1=CCCC(C)=CCC(C)(C)C=CC1 [α-humulene, 2,6,6,9-Tetramethyl-1,4,8-cycloundecatriene]	85 ± 5 µM		50.2 ± 0.3 µM	53 ± 1 µM		< 100 µM	< 100 µM	< 100 µM	< 100 µM	< 100 µM	increasing of gluthatione-S-transferase activity			
					C=C1CC[C@H]2O[C@]2(C)CC[C@@H]2[C@@H]1CC2(C)C [β-caryophyllene oxide]											increasing of gluthatione-S-transferase activity	no significant bioactivity	inactive	
					C=C1CC/C=C(\C)CC[C@@H]2[C@@H]1CC2(C)C [β-caryophyllene]											increasing of gluthatione-S-transferase activity	no significant bioactivity		inhibition of gastric mucosal injuries
